# Measured values: ChEMBL document CHEMBL3885861, “Open TG-GATES”
# Species: Rattus norvegicus
# Test: Open TG-GATES - Regimen: Single
# Assay type: toxicity, organism-based, Sprague-Dawley
# Set-up: regimen Single, gender Male, age 6 weeks
# Conditions: in vivo, po, route gavage; for gamma-GTP / ALP / ALT / AST / BUN / CRE / Ca / Cl / DBIL / GLC / IP / K / LDH / Na / PL / RALB / TBIL / TG / TP: tissue Plasma; for APTT / Bas / Eos / Fbg / Hb / Ht / Lym / MCH / MCV / Mono / Neu / PT / Plat / RBC / Ret / WBC: tissue Blood; for KIDNEY_L / KIDNEY_R / KIDNEY_TOTAL: tissue Kidney; for LIVER: tissue Liver
# [1] = 100 mg/kg, 3 h, dose level Middle
# [2] = 100 mg/kg, 6 h, dose level Middle
# [3] = 100 mg/kg, 9 h, dose level Middle
# [4] = 100 mg/kg, 24 h, dose level Middle
smiles,measurement,setting,value
NC(=O)N1c2ccccc2C=Cc2ccccc21 [CARBAMAZEPINE],gamma-GTP,"30 mg/kg, 24 h, dose level Low",0.8 IU/L
same,TERMINAL_BW,[1],216.3 g
same,APTT,[1],19.3 s
same,Bas,[1],0%
same,Eos,[1],1.2%
same,Fbg,[1],209.4 mg/dL
same,Hb,[1],13.2 g/dL
same,Ht,[1],38.8%
same,Lym,[1],77.4%
same,MCH,[1],21.3 pg
same,MCV,[1],62.7 fL
same,Mono,[1],2.8%
same,Neu,[1],17.2%
same,PT,[1],12.4 s
same,Plat,[1],121.8 x10_4/uL
same,RBC,[1],619 x10_4/ul
same,Ret,[1],7.2%
same,WBC,[1],96 x10_2/uL
same,KIDNEY_L,[1],0.9 g
same,KIDNEY_R,[1],0.9 g
same,KIDNEY_TOTAL,[1],1.9 g
same,LIVER,[1],9.8 g
same,ALP,[1],792.4 IU/L
same,ALT,[1],35.8 IU/L
same,AST,[1],63.8 IU/L
same,BUN,[1],9.2 mg/dL
same,CRE,[1],0.4 mg/dL
same,Ca,[1],10.4 mg/dL
same,Cl,[1],102 meq/L
same,DBIL,[1],0.076 mg/dL
same,GLC,[1],190 mg/dL
same,IP,[1],9.9 mg/dL
same,K,[1],3.8 meq/L
same,LDH,[1],202 IU/L
same,Na,[1],140.6 meq/L
same,PL,[1],152.4 mg/dL
same,RALB,[1],3.3 g/dL
same,TBIL,[1],0.1 mg/dL
same,TG,[1],62 mg/dL
same,TP,[1],5.5 g/dL
same,gamma-GTP,[1],1 IU/L
same,TERMINAL_BW,[2],210.4 g
same,APTT,[2],20.3 s
same,Bas,[2],0%
same,Eos,[2],1%
same,Fbg,[2],210 mg/dL
same,Hb,[2],13.2 g/dL
same,Ht,[2],38.7%
same,Lym,[2],80.4%
same,MCH,[2],20.8 pg
same,MCV,[2],61.1 fL
same,Mono,[2],2.6%
same,Neu,[2],14.8%
same,PT,[2],12.8 s
same,Plat,[2],121.9 x10_4/uL
same,RBC,[2],633.2 x10_4/ul
same,Ret,[2],6.5%
same,WBC,[2],95.7 x10_2/uL
same,KIDNEY_L,[2],0.9 g
same,KIDNEY_R,[2],0.9 g
same,KIDNEY_TOTAL,[2],1.8 g
same,LIVER,[2],9.1 g
same,ALP,[2],803.4 IU/L
same,ALT,[2],30.8 IU/L
same,AST,[2],60.4 IU/L
same,BUN,[2],9.4 mg/dL
same,CRE,[2],0.4 mg/dL
same,Ca,[2],10.6 mg/dL
same,Cl,[2],102.4 meq/L
same,DBIL,[2],0.084 mg/dL
same,GLC,[2],190.6 mg/dL
same,IP,[2],9.4 mg/dL
same,K,[2],3.8 meq/L
same,LDH,[2],175.2 IU/L
same,Na,[2],140.8 meq/L
same,PL,[2],142 mg/dL
same,RALB,[2],3.4 g/dL
same,TBIL,[2],0.1 mg/dL
same,TG,[2],58.4 mg/dL
same,TP,[2],5.6 g/dL
same,gamma-GTP,[2],0.6 IU/L
same,TERMINAL_BW,[3],211 g
same,APTT,[3],18.6 s
same,Bas,[3],0%
same,Eos,[3],1%
same,Fbg,[3],204.6 mg/dL
same,Hb,[3],13.3 g/dL
same,Ht,[3],38.7%
same,Lym,[3],81.4%
same,MCH,[3],21.3 pg
same,MCV,[3],61.9 fL
same,Mono,[3],2.4%
same,Neu,[3],14.8%
same,PT,[3],13.2 s
same,Plat,[3],120.7 x10_4/uL
same,RBC,[3],625.2 x10_4/ul
same,Ret,[3],6.4%
same,WBC,[3],91.7 x10_2/uL
same,KIDNEY_L,[3],1 g
same,KIDNEY_R,[3],1 g
same,KIDNEY_TOTAL,[3],2 g
same,LIVER,[3],8.6 g
same,ALP,[3],828.4 IU/L
same,ALT,[3],25.2 IU/L
same,AST,[3],57.6 IU/L
same,BUN,[3],9.6 mg/dL
same,CRE,[3],0.3 mg/dL
same,Ca,[3],10.3 mg/dL
same,Cl,[3],101.6 meq/L
same,DBIL,[3],0.064 mg/dL
same,GLC,[3],197 mg/dL
same,IP,[3],10.1 mg/dL
same,K,[3],3.7 meq/L
same,LDH,[3],176.2 IU/L
same,Na,[3],140.2 meq/L
same,PL,[3],133.2 mg/dL
same,RALB,[3],3.4 g/dL
same,TBIL,[3],0.1 mg/dL
same,TG,[3],45.6 mg/dL
same,TP,[3],5.4 g/dL
same,gamma-GTP,[3],0.8 IU/L
same,TERMINAL_BW,[4],226.1 g
same,APTT,[4],20.2 s
same,Bas,[4],0%
same,Eos,[4],0.8%
same,Fbg,[4],211.6 mg/dL
same,Hb,[4],13.3 g/dL
same,Ht,[4],39.4%
same,Lym,[4],80%
same,MCH,[4],21.1 pg
same,MCV,[4],62.7 fL
same,Mono,[4],2.8%
same,Neu,[4],15.6%
same,PT,[4],12.2 s
same,Plat,[4],123.8 x10_4/uL
same,RBC,[4],629 x10_4/ul
same,Ret,[4],5.9%
same,WBC,[4],88.7 x10_2/uL
same,KIDNEY_L,[4],1 g
same,KIDNEY_R,[4],1.1 g
same,KIDNEY_TOTAL,[4],2.1 g
same,LIVER,[4],11.4 g
same,ALP,[4],820.6 IU/L
same,ALT,[4],33.8 IU/L
same,AST,[4],66.4 IU/L
same,BUN,[4],18.4 mg/dL
same,CRE,[4],0.4 mg/dL
same,Ca,[4],10.6 mg/dL
same,Cl,[4],103.2 meq/L
same,DBIL,[4],0.1 mg/dL
same,GLC,[4],199 mg/dL
same,IP,[4],7.4 mg/dL
same,K,[4],4.3 meq/L
same,LDH,[4],215 IU/L
same,Na,[4],140.2 meq/L
same,PL,[4],147 mg/dL
same,RALB,[4],3.3 g/dL
same,TBIL,[4],0.2 mg/dL
same,TP,[4],5.5 g/dL
same,gamma-GTP,[4],1 IU/L
